pIC50, pKd: −log10 of the molar value. Read-outs that look alike come from different tables or passages of the source.
What was measured:
[1] = system: SARS-CoV-2 PsV; settings: 48 h
[2] = molecular target: T1, HR1 peptide (911–987) (Severe acute respiratory syndrome coronavirus 2, UniProt P0DTC2); experiment: Fluorescence polarization binding to HR1 peptide; design: species or system SARS-CoV-2
T1 construct: purchased NovoPep Limited

[3] = PAMPA-GIT; settings: at three different pH values
[4] = system: pseudotyped MERS-CoV; settings: 48 h
[5] = system: pseudotyped SARS-CoV; settings: 48 h
[6] = system: pseudotyped HCoV-NL63; settings: 48 h
[7] = system: pseudotyped bat SARSr-CoV WIV1; settings: 48 h
[8] = system: SARS-CoV-2 PsV; settings: previously reported EK1 peptide; read-out: IC50, SARS-CoV-2 PsV infection, previously reported; cited from earlier work

With CC(=O)N[C@H](CC(C)C)CN(CC(=O)N[C@H](CCCCN)CN(CC(=O)N[C@H](CC(C)C)CN(CC(=O)N[C@H](CCC(=O)O)CN(CC(=O)N[C@H](CC(C)C)CN(CC(=O)N[C@H](CCC(=O)O)CN(CC(=O)N[C@H](C)CN(CC(=O)N[C@H](CCCCN)CN(CC(=O)N[C@H](C)CN(CC(=O)N[C@H](CCC(=O)O)CN(CC(=O)N[C@H](CC(C)C)CN(CC(=O)N[C@H](CO)CN(CC(=O)N[C@H](CO)CN(CC(=O)N[C@@H](CSCC(=O)OCCOCCOCCOCCOCCOCCOCCOCCOCCOCCOCCOCCO[C@H]1CC[C@@]2(C)C(=CC[C@H]3[C@@H]4CC[C@H]([C@H](C)CCCC(C)C)[C@@]4(C)CC[C@@H]32)C1)C(N)=O)S(C)(=O)=O)S(C)(=O)=O)S(=O)(=O)CC(C)C)S(C)(=O)=O)S(=O)(=O)CCN)S(C)(=O)=O)S(=O)(=O)CCN)S(=O)(=O)CC(C)C)S(=O)(=O)CCN)S(=O)(=O)CCN)S(C)(=O)=O)S(=O)(=O)CCN)S(=O)(=O)CC(C)C [XY4-C6] as the molecule, how does the pIC50 [1] read?
The pIC50 was 5.58.

With CC(=O)N[C@H](CC(C)C)CN(CC(=O)N[C@H](CCCCN)CN(CC(=O)N[C@H](CC(C)C)CN(CC(=O)N[C@H](CCC(=O)O)CN(CC(=O)N[C@H](CC(C)C)CN(CC(=O)N[C@H](CCC(=O)O)CN(CC(=O)N[C@H](C)CN(CC(=O)N[C@H](CCCCN)CN(CC(=O)N[C@H](C)CN(CC(=O)N[C@H](CCC(=O)O)CN(CC(=O)N[C@H](CC(C)C)CN(CC(N)=O)S(=O)(=O)CC(C)C)S(C)(=O)=O)S(=O)(=O)CCN)S(C)(=O)=O)S(=O)(=O)CCN)S(=O)(=O)CC(C)C)S(=O)(=O)CCN)S(=O)(=O)CCN)S(C)(=O)=O)S(=O)(=O)CCN)S(=O)(=O)CCN [XY1] as the molecule, how does the pKd [2] read?
The pKd was 6.54.

For Cc1cc(=O)n(-c2ccccc2)n1C [antipyrine], which Papp at 30 min, 200 μM ([3]; 200 μM, negative control) is on record?
Its Papp at 30 min, 200 μM is less than 6 ×10⁻⁶ cm/s.

Which results are given for CC[C@H](C)[C@H](NC(=O)[C@H](C)NC(=O)[C@H](CCC(=O)O)NC(=O)[C@H](CCC(=O)O)NC(=O)[C@H](CC(C)C)NC(=O)[C@H](CCCCN)NC(=O)[C@H](CCCCN)NC(=O)[C@H](CCSC)NC(=O)[C@H](CCC(=O)O)NC(=O)[C@H](Cc1ccc(O)cc1)NC(=O)[C@H](CCC(=O)O)NC(=O)[C@H](CC(C)C)NC(=O)[C@H](CC(=O)O)NC(=O)[C@H](CC(C)C)NC(=O)[C@H](Cc1ccccc1)NC(=O)[C@@H](NC(=O)[C@@H](NC(=O)[C@H](CC(N)=O)NC(=O)[C@@H](NC(=O)[C@H](CCC(N)=O)NC(=O)[C@H](CC(=O)O)NC(=O)[C@H](CC(C)C)NC(=O)[C@@H](N)CO)[C@@H](C)CC)C(C)C)[C@@H](C)O)C(=O)N[C@@H](CCCCN)C(=O)N[C@@H](CCCCN)C(=O)N[C@@H](CC(C)C)C(=O)N[C@@H](CCC(=O)O)C(=O)N[C@@H](CCC(=O)O)C(=O)N[C@@H](CO)C(=O)N[C@@H](Cc1ccc(O)cc1)C(=O)N[C@H](C(=O)N[C@@H](CC(=O)O)C(=O)N[C@@H](CC(C)C)C(=O)N[C@@H](CCCCN)C(=O)N[C@@H](CCC(=O)O)C(=O)N[C@@H](CC(C)C)C(=O)O)[C@@H](C)CC [EK1]?
pIC50 [4]: 6.68; pIC50 [5]: 5.92; pIC50 [6]: 5.38; pIC50 [7]: 4.72; pIC50 [8]: 5.62

With CC(=O)N[C@H](CC(C)C)CN(CC(=O)N[C@H](CCCCN)CN(CC(=O)N[C@H](CC(C)C)CN(CC(=O)N[C@H](CCC(=O)O)CN(CC(=O)N[C@H](CC(C)C)CN(CC(=O)N[C@H](CCC(=O)O)CN(CC(=O)N[C@H](C)CN(CC(=O)N[C@H](CCCCN)CN(CC(=O)N[C@H](C)CN(CC(=O)N[C@H](CCC(=O)O)CN(CC(=O)N[C@H](CC(C)C)CN(CC(=O)N[C@H](CO)CN(CC(=O)N[C@H](CO)CN(CC(=O)N[C@@H](CSCC(=O)OCCOCCOCCOCCOCCOCCOCCOCCO[C@H]1CC[C@@]2(C)C(=CC[C@H]3[C@@H]4CC[C@H]([C@H](C)CCCC(C)C)[C@@]4(C)CC[C@@H]32)C1)C(N)=O)S(C)(=O)=O)S(C)(=O)=O)S(=O)(=O)CC(C)C)S(C)(=O)=O)S(=O)(=O)CCN)S(C)(=O)=O)S(=O)(=O)CCN)S(=O)(=O)CC(C)C)S(=O)(=O)CCN)S(=O)(=O)CCN)S(C)(=O)=O)S(=O)(=O)CCN)S(=O)(=O)CC(C)C [XY4-C5] as the molecule, how does the pIC50 [1] read?
Its pIC50 is 5.39.

With CC(=O)N[C@H](CC(C)C)CN(CC(=O)N[C@H](CCCCN)CN(CC(=O)N[C@H](CC(C)C)CN(CC(=O)N[C@H](CCC(=O)O)CN(CC(=O)N[C@H](CC(C)C)CN(CC(=O)N[C@H](CCC(=O)O)CN(CC(=O)N[C@H](C)CN(CC(=O)N[C@H](CCCCN)CN(CC(=O)N[C@H](C)CN(CC(=O)N[C@H](CCC(=O)O)CN(CC(=O)N[C@H](CC(C)C)CN(CC(=O)NCCCCCC(=O)NCCCCCC(=O)N[C@@H](CSCC(=O)OCCOCCOCCOCCOCCOCCOCCOCCOCCOCCOCCOCCO[C@H]1CC[C@@]2(C)C(=CC[C@H]3[C@@H]4CC[C@H]([C@H](C)CCCC(C)C)[C@@]4(C)CC[C@@H]32)C1)C(N)=O)S(=O)(=O)CC(C)C)S(C)(=O)=O)S(=O)(=O)CCN)S(C)(=O)=O)S(=O)(=O)CCN)S(=O)(=O)CC(C)C)S(=O)(=O)CCN)S(=O)(=O)CCN)S(C)(=O)=O)S(=O)(=O)CCN)S(=O)(=O)CC(C)C [XY4-C3] as the molecule, how does the pIC50 [1] read?
Its pIC50 is 6.04.

With CC(=O)N[C@H](CC(C)C)CN(CC(=O)N[C@H](CCCCN)CN(CC(=O)N[C@H](CC(C)C)CN(CC(=O)N[C@H](CCC(=O)O)CN(CC(=O)N[C@H](CC(C)C)CN(CC(=O)N[C@H](CCC(=O)O)CN(CC(=O)N[C@H](C)CN(CC(=O)N[C@H](CCCCN)CN(CC(=O)N[C@H](C)CN(CC(=O)N[C@H](CCC(=O)O)CN(CC(=O)N[C@H](CC(C)C)CN(CC(=O)NCCCCCC(=O)NCCCCCC(=O)N[C@@H](CSCC(=O)OCCOCCOCCOCCOCCOCCOCCOCCO[C@H]1CC[C@@]2(C)C(=CC[C@H]3[C@@H]4CC[C@H]([C@H](C)CCCC(C)C)[C@@]4(C)CC[C@@H]32)C1)C(N)=O)S(=O)(=O)CC(C)C)S(C)(=O)=O)S(=O)(=O)CCN)S(C)(=O)=O)S(=O)(=O)CCN)S(=O)(=O)CC(C)C)S(=O)(=O)CCN)S(=O)(=O)CCN)S(C)(=O)=O)S(=O)(=O)CCN)S(=O)(=O)CC(C)C [XY4-C2] as the molecule, how does the pIC50 [1] read?
Its pIC50 is 5.55.

With CC(=O)N[C@H](CC(C)C)CN(CC(=O)N[C@H](CCCCN)CN(CC(=O)N[C@H](CC(C)C)CN(CC(=O)N[C@H](CCC(=O)O)CN(CC(=O)N[C@H](CC(C)C)CN(CC(=O)N[C@H](CCC(=O)O)CN(CC(=O)N[C@H](C)CN(CC(=O)N[C@H](CCCCN)CN(CC(=O)N[C@H](C)CN(CC(=O)N[C@H](CCC(=O)O)CN(CC(=O)N[C@H](CC(C)C)CN(CC(N)=O)S(=O)(=O)CC(C)C)S(=O)(=O)CC(C)C)S(=O)(=O)CCN)S(C)(=O)=O)S(=O)(=O)CCN)S(=O)(=O)CC(C)C)S(=O)(=O)CCN)S(=O)(=O)CCN)S(C)(=O)=O)S(=O)(=O)CCN)S(=O)(=O)CCN [XY2] as the molecule, how does the pKd [2] read?
Its pKd is 6.48.

With CC(=O)N[C@H](CC(C)C)CN(CC(=O)N[C@H](CCCCN)CN(CC(=O)N[C@H](CC(C)C)CN(CC(=O)N[C@H](CCC(=O)O)CN(CC(=O)N[C@H](CC(C)C)CN(CC(=O)N[C@H](CCC(=O)O)CN(CC(=O)N[C@H](C)CN(CC(=O)N[C@H](CCCCN)CN(CC(=O)N[C@H](C)CN(CC(=O)N[C@H](CCC(=O)O)CN(CC(=O)N[C@H](CC(C)C)CN(CC(=O)NCCCCCC(=O)NCCCCCC(=O)N[C@@H](CSCC(=O)OCCOCCOCCOCCO[C@H]1CC[C@@]2(C)C(=CC[C@H]3[C@@H]4CC[C@H]([C@H](C)CCCC(C)C)[C@@]4(C)CC[C@@H]32)C1)C(N)=O)S(=O)(=O)CC(C)C)S(C)(=O)=O)S(=O)(=O)CCN)S(C)(=O)=O)S(=O)(=O)CCN)S(=O)(=O)CC(C)C)S(=O)(=O)CCN)S(=O)(=O)CCN)S(C)(=O)=O)S(=O)(=O)CCN)S(=O)(=O)CC(C)C [XY4-C1] as the molecule, how does the pIC50 [1] read?
Its pIC50 is 4.53.

For NC(=O)N1c2ccccc2C=Cc2ccccc21 [carbamazepine], which Papp at 30 min, 50 μM ([3]; 50 μM, positive control) is on record?
Its Papp at 30 min, 50 μM is roughly 150 ×10⁻⁶ cm/s.

With CC(=O)N[C@H](CC(C)C)CN(CC(=O)N[C@H](CCCCN)CN(CC(=O)N[C@H](CC(C)C)CN(CC(=O)N[C@H](CCC(=O)O)CN(CC(=O)N[C@H](CC(C)C)CN(CC(=O)N[C@H](CCC(=O)O)CN(CC(=O)N[C@H](C)CN(CC(=O)N[C@H](CCCCN)CN(CC(=O)N[C@H](C)CN(CC(=O)N[C@H](CCC(=O)O)CN(CC(=O)N[C@H](CC(C)C)CN(CC(N)=O)S(=O)(=O)CC(C)C)S(C)(=O)=O)S(=O)(=O)CCN)S(=O)(=O)CC(C)C)S(=O)(=O)CCN)S(=O)(=O)CC(C)C)S(=O)(=O)CCN)S(=O)(=O)CCN)S(C)(=O)=O)S(=O)(=O)CCN)S(=O)(=O)CCN [XY3] as the molecule, how does the pKd [2] read?
Its pKd is 6.37.

With CC(=O)N[C@H](CC(C)C)CN(CC(=O)N[C@H](CCCCN)CN(CC(=O)N[C@H](CC(C)C)CN(CC(=O)N[C@H](CCC(=O)O)CN(CC(=O)N[C@H](CC(C)C)CN(CC(=O)N[C@H](CCC(=O)O)CN(CC(=O)N[C@H](C)CN(CC(=O)N[C@H](CCCCN)CN(CC(=O)N[C@H](C)CN(CC(=O)N[C@H](CCC(=O)O)CN(CC(=O)N[C@H](CC(C)C)CN(CC(N)=O)S(=O)(=O)CC(C)C)S(C)(=O)=O)S(=O)(=O)CCN)S(C)(=O)=O)S(=O)(=O)CCN)S(=O)(=O)CC(C)C)S(=O)(=O)CCN)S(=O)(=O)CCN)S(C)(=O)=O)S(=O)(=O)CCN)S(=O)(=O)CC(C)C [XY4] as the molecule, how does the pKd [2] read?
The pKd was 6.88.

— paper PMC10184535, “An HR2-Mimicking Sulfonyl-γ-AApeptide Is a Potent Pan-coronavirus Fusion Inhibitor with Strong Blood–Brain Barrier Permeability, Long Half-Life, and Promising Oral Bioavailability” (ACS Central Science, 2023)
